PubChem BioAssay AID2060899 (Molecular Pharmacology Branch, DTP, NCI, 2025)

Test system: 565726-208-R1-J5-PDC complex spheroids, growth inhibition
Test: Anticancer human tumor 565726-208-R1-J5-PDC patient-derived pancreatic adenocarcinoma cell line growth inhibition [RAS]
Conditions: for IC50: curve of first compound; for viability, T/C: stronger effect = lower value; active means viability on the fitted dose curve at most 10% of control; inactive means the rest
Method in brief: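 Tumour cells grown as complex spheroids with HUVEC endothelial cells and mesenchymal stem cells, treated with RAS pathway inhibitor combinations. Each agent spans half-log steps from near clinical Cmax, or 10 microM where Cmax is unknown.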
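Further: spheroids exposed to compounds for seven days before readout.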
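Wherever viability, T/C is given: 100% = DMSO vehicle control viability.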

Cc1nc(N2CCC3(CC2)COC(C)C3N)c(CO)nc1Sc1ccnc(N)c1Cl (centres undefined) + CCn1c(-c2cc(N3CCN(C)CC3)cnc2C(C)OC)c2c3cc(ccc31)-c1csc(n1)CC(NC(=O)C1CC1C)C(=O)N1CCCC(N1)C(=O)OCC(C)(C)C2
38.7 nM: IC50 (second compound 0.003 µM)
inactive: viability, T/C (second compound 0.000949 µM, first compound 0.0316 µM) 63.1% | viability, T/C (second compound 0.000949 µM, first compound 0.1 µM) 53.6% | viability, T/C (second compound 0.000949 µM, first compound 0.316 µM) 48.3% | viability, T/C (second compound 0.000949 µM, first compound 1 µM) 39.5% | viability, T/C (second compound 0.000949 µM, first compound 3.16 µM) 33% | viability, T/C (second compound 0.000949 µM, first compound 10 µM) 28% | viability, T/C (second compound 0.003 µM, first compound 0.0316 µM) 51.3% | viability, T/C (second compound 0.003 µM, first compound 0.1 µM) 43.4% | viability, T/C (second compound 0.003 µM, first compound 0.316 µM) 34.3% | viability, T/C (second compound 0.003 µM, first compound 1 µM) 27.6% | viability, T/C (second compound 0.003 µM, first compound 3.16 µM) 29.1% | viability, T/C (second compound 0.003 µM, first compound 10 µM) 22% | viability, T/C (second compound 0.00949 µM, first compound 0.0316 µM) 40.5% | viability, T/C (second compound 0.00949 µM, first compound 0.1 µM) 34.8% | viability, T/C (second compound 0.00949 µM, first compound 0.316 µM) 26.1% | viability, T/C (second compound 0.00949 µM, first compound 1 µM) 22.2% | viability, T/C (second compound 0.00949 µM, first compound 3.16 µM) 20.9% | viability, T/C (second compound 0.00949 µM, first compound 10 µM) 17.1% | viability, T/C (second compound 0.03 µM, first compound 0.0316 µM) 29.1% | viability, T/C (second compound 0.03 µM, first compound 0.1 µM) 28.4% | viability, T/C (second compound 0.03 µM, first compound 0.316 µM) 22.2% | viability, T/C (second compound 0.03 µM, first compound 1 µM) 18% | viability, T/C (second compound 0.03 µM, first compound 3.16 µM) 19.8% | viability, T/C (second compound 0.03 µM, first compound 10 µM) 16.9% | viability, T/C (second compound 0.0949 µM, first compound 0.0316 µM) 22.9% | viability, T/C (second compound 0.0949 µM, first compound 0.1 µM) 21.2% | viability, T/C (second compound 0.0949 µM, first compound 0.316 µM) 20.1% | viability, T/C (second compound 0.0949 µM, first compound 1 µM) 15.9% | viability, T/C (second compound 0.0949 µM, first compound 3.16 µM) 18.3% | viability, T/C (second compound 0.0949 µM, first compound 10 µM) 17.2% | viability, T/C (second compound 0.3 µM, first compound 0.0316 µM) 24.4% | viability, T/C (second compound 0.3 µM, first compound 0.1 µM) 20% | viability, T/C (second compound 0.3 µM, first compound 0.316 µM) 17% | viability, T/C (second compound 0.3 µM, first compound 1 µM) 13.8% | viability, T/C (second compound 0.3 µM, first compound 3.16 µM) 16.2% | viability, T/C (second compound 0.3 µM, first compound 10 µM) 15.5%
204 nM: IC50 (second compound 0.000949 µM)
< 31.6 nM: IC50 (second compound 0.00949 µM) | IC50 (second compound 0.03 µM) | IC50 (second compound 0.0949 µM) | IC50 (second compound 0.3 µM)

CCC(CC)c1cc(NC2CCC(N)C2)n2nccc2n1 (centres undefined) + C#Cc1c(F)ccc2cc(O)cc(-c3ncc4c(N5CC6CCC(C5)N6)nc(OCC56CCCN5CC(F)C6)nc4c3F)c12
active: viability, T/C (second compound 0.0316 µM, first compound 3.16 µM) 1.28% | viability, T/C (second compound 0.0316 µM, first compound 10 µM) 1.5% | viability, T/C (second compound 0.1 µM, first compound 10 µM) 1.87% | viability, T/C (second compound 0.316 µM, first compound 10 µM) 1.94% | viability, T/C (second compound 1 µM, first compound 10 µM) 1.4% | viability, T/C (second compound 3.16 µM, first compound 3.16 µM) 0.63% | viability, T/C (second compound 3.16 µM, first compound 10 µM) 1.4% | viability, T/C (second compound 10 µM, first compound 3.16 µM) 0.25% | viability, T/C (second compound 10 µM, first compound 10 µM) 0.31%
1360 nM: IC50 (second compound 0.316 µM)
1460 nM: IC50 (second compound 0.0316 µM)
inactive: viability, T/C (second compound 0.0316 µM, first compound 0.0316 µM) 111% | viability, T/C (second compound 0.0316 µM, first compound 0.1 µM) 163% | viability, T/C (second compound 0.0316 µM, first compound 0.316 µM) 113% | viability, T/C (second compound 0.0316 µM, first compound 1 µM) 74.5% | viability, T/C (second compound 0.1 µM, first compound 0.0316 µM) 132% | viability, T/C (second compound 0.1 µM, first compound 0.1 µM) 138% | viability, T/C (second compound 0.1 µM, first compound 0.316 µM) 96.9% | viability, T/C (second compound 0.1 µM, first compound 1 µM) 70.2% | viability, T/C (second compound 0.1 µM, first compound 3.16 µM) 1.11% | viability, T/C (second compound 0.316 µM, first compound 0.0316 µM) 133% | viability, T/C (second compound 0.316 µM, first compound 0.1 µM) 135% | viability, T/C (second compound 0.316 µM, first compound 0.316 µM) 103% | viability, T/C (second compound 0.316 µM, first compound 1 µM) 73.3% | viability, T/C (second compound 0.316 µM, first compound 3.16 µM) 1% | viability, T/C (second compound 1 µM, first compound 0.0316 µM) 141% | viability, T/C (second compound 1 µM, first compound 0.1 µM) 123% | viability, T/C (second compound 1 µM, first compound 0.316 µM) 98.8% | viability, T/C (second compound 1 µM, first compound 1 µM) 58.1% | viability, T/C (second compound 1 µM, first compound 3.16 µM) 0.9% | viability, T/C (second compound 3.16 µM, first compound 0.0316 µM) 110% | viability, T/C (second compound 3.16 µM, first compound 0.1 µM) 106% | viability, T/C (second compound 3.16 µM, first compound 0.316 µM) 67.4% | viability, T/C (second compound 3.16 µM, first compound 1 µM) 44.9% | viability, T/C (second compound 10 µM, first compound 0.0316 µM) 92.3% | viability, T/C (second compound 10 µM, first compound 0.1 µM) 83.5% | viability, T/C (second compound 10 µM, first compound 0.316 µM) 51.5% | viability, T/C (second compound 10 µM, first compound 1 µM) 37.1%
426 nM: IC50 (second compound 10 µM)
665 nM: IC50 (second compound 3.16 µM)
1030 nM: IC50 (second compound 1 µM)
1250 nM: IC50 (second compound 0.1 µM)
